In patent publication US20220323427A1, “SOMATOSTATIN RECEPTOR TYPE 5 AGONIST FOR THE TREATMENT OF HYPERINSULINISM” (Crinetics Pharmaceuticals, Inc., priority 2021, published 2022):

Target: T1, human somatostatin receptor subtype 5 (Homo sapiens, UniProt P35346)
T1 construct: expressed in transfected cells
Assay: cAMP assay for SST5R
Assay type: cell-based
Text: General overview: All five SSTR subtypes are Gi coupled G-protein coupled receptors (GPCRs) that lead to decreases in intracellular cyclic AMP (cAMP) when activated by an agonist. Therefore, measurement of intracellular cAMP levels can be used to assess whether compounds of the invention are agonists of SSTR subtypes (John Kelly, Troy Stevens, W. Joseph Thompson, and Roland Seifert, Current Protocols in Pharmacology, 2005, 2.2.1-2.2). One example of an intracellular cAMP assay is described below.
Four days prior to the assay, 2,000 Chinese hamster ovary cells (CHO-K1, ATCC #CCL-61) stably expressing the human somatostatin receptor subtype 5 are plated in each well of a 96-well tissue culture-treated plate in Ham's F12 growth media (ThermoFisher #10-080-CM) supplemented with 10% donor bovine serum (Gemini Bio-Products #100-506), 100 U/mL penicillin; 100 μg/mL streptomycin; 2 mM L-glutamine (Gemini Bio-Products #400-110) and 0.25 mg/mL G418 Sulfate (GoldBio #108321-42-2). The cells are cultured at 37° C., 5% CO2 and 95% humidity. […] The time-resolved fluorescent signal is read with a Tecan M1000Pro multiplate reader. The intracellular cAMP concentrations are calculated by regression to a standard curve and are plotted vs. the concentration of the compounds of the invention and the EC50 of the compounds are calculated using standard methods. […]

T1 sequence (P35346 whole entry): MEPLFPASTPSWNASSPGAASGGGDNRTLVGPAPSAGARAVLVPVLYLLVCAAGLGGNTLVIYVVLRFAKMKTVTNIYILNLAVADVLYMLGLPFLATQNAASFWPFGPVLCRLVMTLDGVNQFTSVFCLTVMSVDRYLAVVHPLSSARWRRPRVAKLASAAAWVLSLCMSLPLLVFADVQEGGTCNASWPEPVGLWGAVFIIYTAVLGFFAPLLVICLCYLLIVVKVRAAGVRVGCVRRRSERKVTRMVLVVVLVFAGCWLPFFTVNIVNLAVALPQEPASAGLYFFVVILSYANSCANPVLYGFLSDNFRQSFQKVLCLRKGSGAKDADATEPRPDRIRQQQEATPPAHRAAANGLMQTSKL

Fold selectivity for SST5 vs SST2 (human SST5 vs human SST2, cAMP): >500 fold
EC50 (inhibition of cAMP, CHO-K1 cells expressing human SST5, read-out: SST5 potency (EC50; nM)): < 1 nM
Structure (SMILES): C[C@H](NC(=O)c1cnc(C#N)c(-c2cc(F)cc(F)c2)c1N1CC[C@H](N)C1)C(F)(F)F [Compound 1, 4-[(3S)-3-aminopyrrolidin-1-yl]-6-cyano-5-(3,5-difluorophenyl)-N-[(2S)-1,1,1-trifluoropropan-2-yl]pyridine-3-carboxamide]
